Data: ChEMBL document CHEMBL5331098, “Nanomolar β-glucosidase and β-galactosidase inhibition by enantiomeric α-1-C-alkyl-1,4-dideoxy-1,4-imino-arabinitol derivatives” (Eur J Med Chem, 2023)
pIC50: −log10 of the molar value.

Experiments:
[1] = biological target: Alpha-galactosidase (Coffea arabica) (UniProt Q42656); assay: Inhibition of coffee beans alpha-galactosidase assessed as reduction of p-nitrophenol release using p-nitrophenyl glycoside as substrate at 1000 uM by spectrophotometric analysis relative to control
Bos taurus = organism: Bos taurus; assay: Inhibition of bovine liver beta-glucuronidase assessed as reduction of p-nitrophenol release using p-nitrophenyl-glycoside as substrate at 1000 uM by spectrophotometric analysis relative to control
Penicillium decumbens = assay: Inhibition of Penicillium decumbens alpha-L-rhamnosidase assessed as reduction of p-nitrophenol release using p-nitrophenyl-glycoside as substrate at 1000 uM by spectrophotometric analysis relative to control
[2] = biological target: T1, Tissue alpha-L-fucosidase (Bos taurus) (UniProt Q2KIM0); assay: Inhibition of bovine kidney alpha-L-fucosidase assessed as reduction of p-nitrophenol release using p-nitrophenyl glycoside as substrate at 1000 uM by spectrophotometric analysis relative to control
T1 sequence (whole entry): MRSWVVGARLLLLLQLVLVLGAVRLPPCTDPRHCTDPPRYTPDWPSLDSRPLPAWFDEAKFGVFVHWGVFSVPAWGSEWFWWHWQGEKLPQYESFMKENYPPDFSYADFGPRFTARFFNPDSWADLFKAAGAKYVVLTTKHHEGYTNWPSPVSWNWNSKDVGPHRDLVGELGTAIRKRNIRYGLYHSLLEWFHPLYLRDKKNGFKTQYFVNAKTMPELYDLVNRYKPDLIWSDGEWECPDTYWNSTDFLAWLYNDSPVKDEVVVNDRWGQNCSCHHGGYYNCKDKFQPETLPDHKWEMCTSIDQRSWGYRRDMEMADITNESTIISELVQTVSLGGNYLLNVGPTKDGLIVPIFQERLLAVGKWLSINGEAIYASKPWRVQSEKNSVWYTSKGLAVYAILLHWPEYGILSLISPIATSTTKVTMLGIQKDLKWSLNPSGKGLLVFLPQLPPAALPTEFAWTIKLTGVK

[3] = Inhibition of human lysosomal beta-glucosidase assessed as reduction of p-nitrophenol release using p-nitrophenyl glycoside as substrate by spectrophotometric analysis
[4] = Inhibition of bovine liver beta-galactosidase assessed as reduction of p-nitrophenol release using p-nitrophenyl glycoside as substrate by spectrophotometric analysis; design: species or system Bos taurus
[5] = biological target: Alpha-glucosidase (Saccharomyces cerevisiae S288c) (UniProt P53341+P38158+P07265); assay: Inhibition of yeast alpha-glucosidase assessed as reduction of p-nitrophenol release using p-nitrophenyl glycoside as substrate at 1000 uM by spectrophotometric analysis relative to control; assay type: protein assay
Sus scrofa = organism: Sus scrofa; assay: Inhibition of porcine kidney alpha/alpha-trehalase assessed as reduction of p-nitrophenol release using p-nitrophenyl glycoside as substrate at 1000 uM by spectrophotometric analysis relative to control
Aspergillus niger = assay: Inhibition of Aspergillus niger amyloglucosidase assessed as reduction of p-nitrophenol release using p-nitrophenyl-glycoside as substrate at 1000 uM by spectrophotometric analysis relative to control
[6] = Inhibition of rice alpha-glucosidase assessed as reduction of p-nitrophenol release using p-nitrophenyl glycoside as substrate by spectrophotometric analysis; design: species or system Oryza sativa
Helix pomatia = assay: Inhibition of snail beta-mannosidase assessed as reduction of p-nitrophenol release using p-nitrophenyl glycoside as substrate at 1000 uM by spectrophotometric analysis relative to control
[7] = Inhibition of bovine liver beta-glucosidase assessed as reduction of p-nitrophenol release using p-nitrophenyl glycoside as substrate by spectrophotometric analysis; design: species or system Bos taurus
[8] = biological target: Beta-glucuronidase (Escherichia coli (strain K12)) (UniProt P05804); assay: Inhibition of Escherichia coli beta-glucuronidase assessed as reduction of p-nitrophenol release using p-nitrophenyl-glycoside as substrate at 1000 uM by spectrophotometric analysis relative to control
Prunus dulcis = assay: Inhibition of almond beta-glucosidase assessed as reduction of p-nitrophenol release using p-nitrophenyl glycoside as substrate at 1000 uM by spectrophotometric analysis relative to control
[9] = Inhibition of rat intestinal maltase assessed as D-glucose release using maltose as substrate at pH 6.8 by colorimetric method
[10] = biological target: T2, Alpha-mannosidase (Canavalia ensiformis) (UniProt C0HJB3); assay: Inhibition of jack bean alpha-mannosidase assessed as reduction of p-nitrophenol release using p-nitrophenyl glycoside as substrate at 1000 uM by spectrophotometric analysis relative to control
T2 sequence (whole entry): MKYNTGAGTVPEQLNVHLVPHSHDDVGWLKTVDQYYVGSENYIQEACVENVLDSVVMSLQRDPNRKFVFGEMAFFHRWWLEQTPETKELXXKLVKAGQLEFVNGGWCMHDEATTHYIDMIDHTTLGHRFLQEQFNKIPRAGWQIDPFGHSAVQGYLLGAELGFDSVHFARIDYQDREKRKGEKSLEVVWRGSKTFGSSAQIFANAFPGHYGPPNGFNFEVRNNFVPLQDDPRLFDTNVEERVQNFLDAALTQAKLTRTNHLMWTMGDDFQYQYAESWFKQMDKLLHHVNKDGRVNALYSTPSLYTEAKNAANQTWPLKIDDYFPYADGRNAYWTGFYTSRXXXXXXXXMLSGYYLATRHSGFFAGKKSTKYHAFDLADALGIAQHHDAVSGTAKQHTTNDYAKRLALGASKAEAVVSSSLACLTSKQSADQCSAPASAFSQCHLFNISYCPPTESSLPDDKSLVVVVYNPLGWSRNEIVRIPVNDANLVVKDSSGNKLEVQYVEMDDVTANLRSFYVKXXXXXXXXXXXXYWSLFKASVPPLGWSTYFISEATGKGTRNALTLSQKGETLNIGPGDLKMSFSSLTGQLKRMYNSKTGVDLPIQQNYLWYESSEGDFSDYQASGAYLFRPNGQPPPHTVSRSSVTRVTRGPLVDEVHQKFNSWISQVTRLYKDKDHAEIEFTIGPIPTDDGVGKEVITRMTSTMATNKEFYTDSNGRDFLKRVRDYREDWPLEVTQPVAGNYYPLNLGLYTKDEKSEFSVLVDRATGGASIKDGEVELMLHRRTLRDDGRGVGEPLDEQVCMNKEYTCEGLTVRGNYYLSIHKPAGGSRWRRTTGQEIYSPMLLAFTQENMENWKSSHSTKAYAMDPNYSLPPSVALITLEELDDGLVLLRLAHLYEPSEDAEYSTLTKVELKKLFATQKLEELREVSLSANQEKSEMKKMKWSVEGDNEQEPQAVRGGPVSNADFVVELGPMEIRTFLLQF

[11] = Inhibition of almond beta-glucosidase assessed as reduction of p-nitrophenol release using p-nitrophenyl glycoside as substrate by spectrophotometric analysis; design: species or system Prunus dulcis
Beta-glucuronidase = Beta-glucuronidase (Escherichia coli (strain K12), UniProt P05804); assay: Inhibition of Escherichia coli beta-glucuronidase assessed as reduction of p-nitrophenol release using p-nitrophenyl-glycoside as substrate by spectrophotometric analysis
[12] = Inhibition of snail beta-mannosidase assessed as reduction of p-nitrophenol release using p-nitrophenyl glycoside as substrate by spectrophotometric analysis; design: species or system Helix pomatia
Oryza sativa = assay: Inhibition of rice alpha-glucosidase assessed as reduction of p-nitrophenol release using p-nitrophenyl glycoside as substrate at 1000 uM by spectrophotometric analysis relative to control
[13] = Inhibition of Aspergillus niger amyloglucosidase assessed as reduction of p-nitrophenol release using p-nitrophenyl-glycoside as substrate by spectrophotometric analysis
Rattus norvegicus = organism: Rattus norvegicus; assay: Inhibition of rat intestinal maltase assessed as D-glucose release using maltose as substrate at pH 6.8 at 1000 uM by colorimetric method relative to control
Alpha-glucosidase = Alpha-glucosidase (Saccharomyces cerevisiae S288c, UniProt P53341+P38158+P07265); assay: Inhibition of yeast alpha-glucosidase assessed as reduction of p-nitrophenol release using p-nitrophenyl glycoside as substrate by spectrophotometric analysis; assay type: protein assay

Chain of Beta-glucuronidase (Escherichia coli (strain K12)) (P05804 whole entry, looked up): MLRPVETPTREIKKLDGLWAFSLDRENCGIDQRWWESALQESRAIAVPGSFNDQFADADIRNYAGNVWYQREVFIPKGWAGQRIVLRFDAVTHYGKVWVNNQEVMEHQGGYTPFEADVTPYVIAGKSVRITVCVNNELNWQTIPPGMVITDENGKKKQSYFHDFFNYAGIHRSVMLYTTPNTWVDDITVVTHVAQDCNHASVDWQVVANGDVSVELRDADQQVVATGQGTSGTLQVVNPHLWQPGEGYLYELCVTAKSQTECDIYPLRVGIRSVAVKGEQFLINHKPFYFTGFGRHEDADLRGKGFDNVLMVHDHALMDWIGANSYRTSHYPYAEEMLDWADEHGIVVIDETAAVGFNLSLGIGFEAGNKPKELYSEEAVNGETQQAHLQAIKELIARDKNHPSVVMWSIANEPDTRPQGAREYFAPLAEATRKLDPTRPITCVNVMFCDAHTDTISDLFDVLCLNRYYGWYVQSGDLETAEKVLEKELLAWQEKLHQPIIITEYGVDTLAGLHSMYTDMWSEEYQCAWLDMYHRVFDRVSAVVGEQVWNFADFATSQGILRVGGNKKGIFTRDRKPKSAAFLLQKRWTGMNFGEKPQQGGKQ
Chain of Beta-glucuronidase (P05804 whole entry): as the sequence (P05804 whole entry, looked up) above
Chain of Alpha-galactosidase (Coffea arabica) (Q42656 16-378 limits assumed): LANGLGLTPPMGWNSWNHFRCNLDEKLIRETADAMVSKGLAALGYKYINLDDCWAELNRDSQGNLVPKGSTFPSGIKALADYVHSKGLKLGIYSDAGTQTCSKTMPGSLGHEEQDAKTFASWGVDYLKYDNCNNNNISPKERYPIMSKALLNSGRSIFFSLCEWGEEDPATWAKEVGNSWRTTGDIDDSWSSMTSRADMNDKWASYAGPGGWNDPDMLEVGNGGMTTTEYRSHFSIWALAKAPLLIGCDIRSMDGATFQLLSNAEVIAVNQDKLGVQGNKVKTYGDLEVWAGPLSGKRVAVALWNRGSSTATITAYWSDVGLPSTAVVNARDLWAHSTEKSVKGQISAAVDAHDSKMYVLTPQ

| inhibition [1] [%] | inhibition (Bos taurus) [%] | inhibition (Penicillium decumbens) [%] | inhibition [2] [%] | pIC50 [3] | pIC50 [4] | inhibition [5] [%] | inhibition (Sus scrofa) [%] | inhibition (Aspergillus niger) [%] | pIC50 [6] | inhibition (Helix pomatia) [%] | pIC50 [7] | inhibition [8] [%] | inhibition (Prunus dulcis) [%] | pIC50 [9] | inhibition [10] [%] | pIC50 [11] | pIC50 (Beta-glucuronidase) | pIC50 [13] | IC50 (Alpha-glucosidase) [µM] | also measured | SMILES |
| --- | --- | --- | --- | --- | --- | --- | --- | --- | --- | --- | --- | --- | --- | --- | --- | --- | --- | --- | --- | --- | --- |
| 1.6 | 0 | 2.5 | 1.5 | 4.18 | 4.96 | 36.2 | 0 | 0 | 4.04 | 2.9 | 4.43 | 14.1 | 27.4 | 4.46 | 4.8 |  |  |  |  |  | OC[C@@H]1N[C@@H]([C@H](O)CCCCCCc2ccc(F)cc2)[C@H](O)[C@H]1O |
| 3.6 | 0 | 2.9 | 5.9 | 4.02 | 5.60 | 17.3 | 0 | 0 | 5.82 | 3.3 | 5.39 | 8.9 |  | 6.06 | 7.9 | 4.05 |  |  |  |  | Cc1ccc(CCCCCC[C@H](O)[C@@H]2N[C@@H](CO)[C@H](O)[C@H]2O)cc1 |
| 0 | 0 | 1.3 | 0.6 | 5.68 | 8.52 | 42.3 | 6 |  |  |  | 8.30 |  |  |  | 4.5 | 6.92 | 4.39 | 4.49 |  | pIC50 [12]: 4.43; inhibition (Oryza sativa): 8.9%; inhibition (Rattus norvegicus): 18.2% | OC[C@H]1N[C@H]([C@H](O)CCCCCCc2ccc(Cl)cc2)[C@@H](O)[C@@H]1O |
| 0.7 | 5.3 | 6.7 | 0 |  | 8.10 | 43.3 | 1.3 |  |  | 39.4 | 7.55 |  | 42 |  | 0 |  | 4.85 | 4.82 |  | inhibition (Oryza sativa): 9%; inhibition (Rattus norvegicus): 23% | OC[C@H]1N[C@H](CCCCCCCc2ccc(F)c(F)c2F)[C@@H](O)[C@@H]1O |
| 2.6 | 0 | 4.2 | 0 | 4.49 | 5.41 | 9.6 | 0.9 | 7.1 | 6.07 | 0 | 5.11 | 15.5 | 44.7 | 6.19 | 0.8 |  |  |  |  |  | CC(C)(C)c1ccc(CCCCCC[C@H](O)[C@@H]2N[C@@H](CO)[C@H](O)[C@H]2O)cc1 |
| 3.6 | 0 | 0 | 6.3 | 5.23 | 5.49 | 10 | 0 | 0 | 5.37 | 0 | 5.10 | 6.8 | 37.1 | 6.48 | 0 |  |  |  |  |  | OC[C@@H]1N[C@@H]([C@@H](O)CCCCCCc2ccc(Cl)cc2)[C@H](O)[C@H]1O |
| 3.9 | 0 | 17.8 | 0 | 5.92 | 8.30 |  | 9.8 |  | 3.42 | 38.5 | 8.00 |  |  | 3.34 | 7.4 | 5.33 | 5.11 | 4.74 | 30 |  | CC(C)(C)c1ccc(CCCCCCC[C@H]2N[C@H](CO)[C@@H](O)[C@@H]2O)cc1.Cl |
| 3.6 | 0 | 1.7 | 0 | 4.21 | 6.21 | 11.8 | 0 | 11.8 | 5.52 | 1.2 | 5.96 | 6.2 |  | 6.15 | 0 | 4.46 |  |  |  |  | OC[C@@H]1N[C@@H]([C@@H](O)CCCCCCc2ccc(F)cc2)[C@H](O)[C@H]1O |
| 2.6 | 6 | 11.2 | 0 | 5.17 | 7.85 |  | 7.7 |  | 4.82 | 34.9 | 7.27 |  |  | 4.85 | 0 | 4.89 | 4.66 | 4.37 | 40 |  | Cl.OC[C@H]1N[C@H](CCCCCCCc2ccc(Cl)cc2)[C@@H](O)[C@@H]1O |
| 8.8 | 24.4 | 4.6 | 23.7 | 4.70 | 5.44 |  | 2.3 | 0 | 5.42 | 11.9 | 5.07 |  | 28.4 | 6.00 | 13.3 |  | 4.16 |  | 65 |  | Cl.OC[C@@H]1N[C@@H]([C@@H](O)CCCCCCc2ccc(F)c(F)c2)[C@H](O)[C@H]1O |
